Results as given in US20160120894A1, “USE OF ADENOSINE ASPARTATE IN THE DI[…] M[…] INFLAMMATORY-[…] AND ITS REVERSAL” (UNIVERSIDAD NACIONAL AUTÓNOMA DE MÉXICO, priority 2013, published 2016).
Entries after “also recorded” stand apart in the source; their conditions may differ.

What was measured:
[1] = tested on: cytokines in liver homogenate; experiment: Prevention of CCl4-induced cirrhosis: cytokines in liver homogenate by Luminex; type: in vivo, rats; settings: CCl4+IFC-305 50 mg/Kg, 8 weeks
Excerpt: FIGS. 2A and 2B refer to the results obtained for cytokines in liver homogenate evaluated by Luminex® at 8 weeks of administration of CCl4 and CCl4+IFC-305. Concentration (pg/mL)±standard deviation is shown.
(§1) Cirrhosis is a disease chronic degenerative characterized by diffuse fibrosis and regenerative nodules distorting tissue architecture. The diffuse fibrosis is supported by a chronic inflammatory process. During this process, chemokines and cytokines that favor this process are generated. In a model of prevention of cirrhosis by treatment with adenosine aspartate, knowing having an antifibrogenic effect, would allow knowing the effect of this drug during the establishment of cirrhosis for 4, 6 and 8 weeks and its effect on response activation immune and inflammation.
(§2) In this study, four groups of six male rats of 100 g to 110 g were formed; the rats were treated simultaneously under the same doses with CCl4 (25 μl of carbon tetrachloride in vegetable oil) and IFC-305 (50 mg/Kg). All treatments were given three times a week for 4, 6 and 8 weeks; at the moment of sacrifice, of serum and liver were taken.

[2] = tested on: Kupffer cells (CD163+/CD11b+); experiment: Prevention of CCl4-induced cirrhosis: kinetic of Kupffer cells in the liver by flow cytometry; type: in vivo, rats; settings: CCl4+IFC-305 vs CCl4; 4, 6, 8 and 10 weeks
Experimental: FIG. 5 refers to the kinetic of Kupffer cells (CD163+/CD11b+) in the liver, assessed by flow cytometry at 4, 6, 8 and 10 weeks, administration with CCl4, IFC-305 and CCl4+IFC-305 to same time. % Kupffer cells±standard error.
as §2
FIG. 5 refers to a graphic showing the total number of Kupffer cells quantified with CD163+/CD11b/c+ for 4, 6, 8 and 10 weeks of treatment with CCl4, with an increase during the development of cirrhosis that decreases with the treatment of the compound IFC-305.

serum cytokines = experiment: Reversal of established CCl4 cirrhosis: serum cytokines by Luminex; type: in vivo, Wistar rats; settings: cirrhotic rats, IFC-305 50 mg/kg i.p. three times a week vs saline
Experimental: (§3) FIGS. 3A to 3C refer to the obtained results for serum cytokines evaluated by Luminex® in the different experimental groups of cirrhotic animals (Ci) treated with IFC-305 and saline for five and ten weeks (Ci SS 5s, Ci IFC 5s, Ci SS 10s and Ci IFC 10s post-treatment with CCl4). Concentration (pg/mL)±standard deviation is shown.
(§4) 100 g male Wistar rats were used, with free access to food and water. Cirrhosis was induced with 25 μl of CCl4 in vegetable oil three times a week for ten weeks. Once cirrhosis is established, the animals were divided into five groups: group I, treatment with CCl4 is suspended, control animals of cirrhosis are sacrificed, groups II and III is allowed to proceed cirrhosis and received three intraperitoneal injections of saline per week for 5 to 10 weeks, groups IV and V received three intraperitoneal injections of the compound at a dose of 50 mg/kg for 5 to 10 weeks; at the moment of sacrifice, serum and liver samples taken.

[3] = tested on: cytokines in liver homogenate; experiment: Reversal of established CCl4 cirrhosis: cytokines in liver homogenate by Luminex; type: in vivo, Wistar rats; settings: cirrhotic rats, IFC-305 50 mg/kg i.p.
Experimental: as §3, with “4A” for “3A”, “4D” for “3C”, “for” for “for serum”, “cytokines in liver homogenate” for “cytokines”, “10s,” for “10s”, “10s).” for “10s post-treatment with CCl4).”
as §4

serum cytokine = experiment: Prevention of CCl4-induced cirrhosis: serum cytokines by Luminex; type: in vivo, rats
Excerpt: FIGS. 1A to 1C refer to the obtained results for serum cytokine evaluated by Luminex® at 4, 6 and 8 weeks of administration of CCl4 and CCl4+IFC. Concentration (pg/mL)±standard deviation is shown.
as §1, §2

Arginase I = experiment: Reversal of established CCl4 cirrhosis: Western blot of Arginase I in liver homogenate; type: in vivo, Wistar rats; settings: cirrhotic rats, IFC-305 50 mg/kg i.p., five and ten weeks
Experimental: FIG. 7 refers to Western blot Arginase I. Expression of total protein in liver homogenate in the different experimental groups treated with IFC-305 and saline for five and ten weeks.
as §4

[4] = tested on: total macrophages (HIS36+/CD11b+) and inflammatory phenotype Kupffer cells (CD163+/CD11b/c+ (M1)); experiment: Reversal of established CCl4 cirrhosis: distribution of liver macrophages by flow cytometry; type: in vivo, Wistar rats; settings: cirrhotic rats, IFC-305 50 mg/kg i.p., five and ten weeks
Experimental: FIGS. 6A and 6B relate to the obtained results regarding the distribution of macrophages. […] Percentage (%) of Kupffer cells with respect to control±standard error.
as §4

[5] = CCl4+IFC-305 50 mg/Kg three times a week vs CCl4, 4, 6 and 8 weeks

adenosine aspartate [IFC-305]
liver homogenate IL-1β [1]: decreases | liver homogenate IL-4 [1]: decreases | liver homogenate IL-6 [1]: increase relative to the control | liver homogenate IL-10 [1]: decreases | liver homogenate IL-12 [1]: increase relative to the control | liver homogenate INF-γ [1]: increase relative to the control | liver homogenate MCP-1 [1]: increase relative to the control | liver homogenate IL-6 ([1]; listed as adenosine aspartate): increase | total number of Kupffer cells (CD163+/CD11b/c+) in the liver [2]: decreases | serum IL-4 (serum cytokines; 5 weeks): kept in similar values to controls or less; also recorded: maintained in an equal range to the control or lower | serum IL-6 (serum cytokines; 5 weeks): kept in similar values to controls or less; also recorded: maintained in an equal range to the control or lower | serum IL-1β (serum cytokines; 10 weeks): kept in similar values to controls or less; also recorded: maintained in an equal range to the control or lower | inflammatory cytokines in liver homogenate (cirrhosis high values) ([3]; 5 to 10 weeks): reduced | liver homogenate IL-1β ([3]; five and ten weeks): decreased compared to cirrhotic control | liver homogenate IL-4 ([3]; five and ten weeks): decreased compared to cirrhotic control | liver homogenate IL-6 ([3]; five and ten weeks): regulated | IL-10 (anti-inflammatory cytokine), liver homogenate ([3]; five and ten weeks, 50 mg/kg): increased | serum IL-1β (serum cytokine; [5]): decreasing | serum IL-4 (serum cytokine; [5]): decreasing; also recorded: decreased | serum IL-6 (serum cytokine; CCl4+IFC-305 50 mg/Kg vs CCl4, 4 and 6 weeks): decreasing; also recorded: decrease | serum IL-6 (serum cytokine; CCl4+IFC-305 50 mg/Kg, 8 weeks): increase | arginase (Arginase I) protein in liver homogenate, Western blot (Arginase I): more amount of enzyme | arginase (Arginase I) protein in liver homogenate, Western blot (Arginase I; 50 mg/kg): increased | Kupffer cells with inflammatory phenotype (M1) CD163+/CD11b/c+ [4]: decrease; also recorded: decreasing during the progression of cirrhosis and markedly with the treatment | total macrophages (HIS36+/CD11b+) in the liver [4]: increases
